Measured values as given in patent publication US9371304B2, “Compound separated from monascus-fermented rice,the preparation method and uses thereof” (Beijing Peking University WBL Biotech Co. Ltd, priority 2011, dated 2016).

Molecular target: T1, HMG-CoA reductase (microsomes of rat liver) (Rattus norvegicus, UniProt P51639)
T1 construct: from tissue; host or cells: rat liver microsomes
T1 sequence (P51639 1-887): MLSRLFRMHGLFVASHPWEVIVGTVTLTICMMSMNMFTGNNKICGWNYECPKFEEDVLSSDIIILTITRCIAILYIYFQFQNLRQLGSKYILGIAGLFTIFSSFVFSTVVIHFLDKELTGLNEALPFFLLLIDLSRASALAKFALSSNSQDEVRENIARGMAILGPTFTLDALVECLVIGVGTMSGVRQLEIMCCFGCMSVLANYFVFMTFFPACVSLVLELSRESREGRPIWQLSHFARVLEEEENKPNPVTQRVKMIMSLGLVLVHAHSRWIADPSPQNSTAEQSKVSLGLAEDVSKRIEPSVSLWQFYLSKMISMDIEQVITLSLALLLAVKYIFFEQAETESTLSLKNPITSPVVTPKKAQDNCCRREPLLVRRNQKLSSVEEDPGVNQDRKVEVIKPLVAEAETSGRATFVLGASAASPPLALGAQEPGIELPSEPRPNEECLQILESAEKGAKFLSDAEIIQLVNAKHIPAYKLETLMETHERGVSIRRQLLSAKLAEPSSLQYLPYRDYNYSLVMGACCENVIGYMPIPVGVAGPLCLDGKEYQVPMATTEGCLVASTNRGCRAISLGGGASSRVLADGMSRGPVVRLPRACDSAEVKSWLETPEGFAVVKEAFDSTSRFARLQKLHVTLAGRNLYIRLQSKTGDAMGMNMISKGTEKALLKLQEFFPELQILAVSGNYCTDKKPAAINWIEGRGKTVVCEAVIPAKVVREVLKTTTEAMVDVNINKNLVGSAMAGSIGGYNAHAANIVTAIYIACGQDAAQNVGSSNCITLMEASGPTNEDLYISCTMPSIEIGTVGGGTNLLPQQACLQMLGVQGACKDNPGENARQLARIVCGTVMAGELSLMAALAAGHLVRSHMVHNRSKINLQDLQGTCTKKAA
Test: Test of inhibiting activity of HMG-CoA reductase (rate of decline of OD340)
Assay type: biochemical
Details: for Slope (rate of decline of OD340 within 5 min): blank control slope 9.971
Description: 1. Experimental Materials
The compound of Formula II prepared according to Example 1.
monacolin L (purchased or prepared according to the method of the contents of the present invention)
Standard Sample of Lovastatin (Purchased from Sigma)
Microsomes of rat liver (HMG-CoA reductase) were purchased, or prepared according to the following method: liver of a male rat was taken out, washed with KESD buffering solution, then centrifuged at 1,200 g for 15 min, the supernatant was taken out, and then centrifuged at 105,000 g for 90 min twice, and a centrifugation precipitate was collected. The centrifugation precipitate was added with 8.3% glycerol, heated with 37° C. bath for 1 h. The microsomes of rat liver were purified with saturated ammonium sulfate and the 33-50% purified fraction was collected. The obtained microsomes of rat liver were stored in refrigerator at −80° C.
Potassium chloride, potassium dihydrogen phosphate, ethylene diamine tetraacetic acid, dithiothreitol (all purchased from Beijing Chemical Reagent Co., Ltd.)
[…] (purchased from Merck) 3-hydroxy-3-methylglutaryl coenzyme A (HMG-CoA) and cremophore EL (purchased from Sigma).
The compound as prepared according to Example 1 was dissolved with 50% cremophore EL ethanol solution, and the concentration was 2 mg/mL; the total volume of the system was determined and it was 250 μL, and the concentration of each component was: potassium chloride 200 mM, potassium dihydrogen phosphate 160 mM, ethylene diamine tetraacetic acid 4 mM, dithiothreitol 10 mM, concentrations of two substrates, nicotinamide adenine dinucleotide and 3-hydroxy-3-methylglutaryl coenzyme A, 200 μM and 50 μM separately, pH6.8, addition of enzyme 30 μL, enzyme inhibitor 5 μL, blank control group 5 μL (solvent for dissolving sample). The dynamic change of OD340 was detected with Versamax ELIASA at 37° C. The rate of decline (represented with slope value) of OD340 within 5 min was used to evaluate the activity of HMG-CoA reductase, and then to evaluate the activity of enzyme inhibitor.

Compound: CC[C@H](C)C(=O)O[C@H]1C[C@@H](C)C=C2C=C[C@H](C)[C@H](CC[C@@H]3C[C@@H](O)CC(=O)O3)[C@H]21 [Lovastatin]
- Slope (rate of decline of OD340 within 5 min) (final concentration 34 μg/mL, 37° C., pH6.8): 6.022
- inhibition at 34 µg/mL (pH 6.8, final concentration 34 μg/mL, 37° C., pH6.8): 39.6%

Compound: CC1C=C2C=CC(C)C(CCC3CC=CC(=O)O3)C2CC1 (stereo not shown) [6-(2-(2,6-dimethyl-1,2,6,7,8,8a-hexahydronaphthalen-1-yl)ethyl)-5,6-dihydropyran-2-one]
- activity for inhibiting HMG-CoA reductase (in words) (conclusion drawn from Table 2): effective activity
- Slope (rate of decline of OD340 within 5 min) (final concentration 40 μg/mL, 37° C., pH6.8): 7.344
- inhibition at 40 µg/mL (pH 6.8, final concentration 40 μg/mL, 37° C., pH6.8): 26.3%

Compound: CC1C=C2C=CC(C)C(CCC3CC(O)CC(=O)O3)C2CC1 (stereo not shown) [monacolin L]
- Slope (rate of decline of OD340 within 5 min) (final concentration 30 μg/mL, 37° C., pH6.8): 7.279
- inhibition at 30 µg/mL (pH 6.8, final concentration 30 μg/mL, 37° C., pH6.8): 27%
